Reference: patent US9895338B1, “Cobalt-polypyridyl complex for treatment of cancer, a pharmaceutical composition and a kit comprising it” (Macau University of Science and Technology, priority 2016, dated 2018)
Where two headings read alike, the source gives them in different places.

Legend:
[1] = system: A549 (lung cancer); test: MTT cytotoxicity assay, A549; assay type: cell-based; details: 72 h
Protocol: (§1) All prepared cobalt-polypyridyl complexes were dissolved in DMSO at a final concentration of 50 mmol/L and stored at −20° C. before use. Cytotoxicity was assessed by using the 3-(4,5-dimethylthiazol-2-yl)-2,5-diphenyltetrazolium bromide (MTT) (5.0 mg/ml) assay as previously described (Wong, V. K. et al., Cell Death Dis, 2013, 4, e720). Briefly, 4×10^3 cells per well were seeded in 96-well plates before drug treatments. After overnight culture, the cells were then exposed to different concentrations of selected compounds (0.039-100 μmol/L) for 72 h. Cells without drug treatment were used as control. Subsequently, MTT (10 μL) solution was added to each well and incubated at 37° C. for 4 h followed by the addition of 100 μL solubilization buffer (10% SDS in 0.01 mol/L HCl) and overnight incubation. A570 nm was then determined in each well on the next day. The percentage of cell viability was calculated using the following formula: Cell viability (%)=Atreated/Acontrol×100. Data were obtained from three independent experiments. Cells include HeLa cells (cervical cancer), MCF-7 (breast cancer), H1299, H1975, A549 and LLC-1 (lung cancer), HepG2 and Hep3B (liver cancer) and LO2 (normal human hepatocytes).

[2] = system: Taxol-sensitive A549 cancer cells; test: MTT cytotoxicity, taxol-sensitive A549; assay type: cell-based; details: 72 h
Protocol: as §1, with “experiments.” for “experiments. Cells include HeLa cells (cervical cancer), MCF-7 (breast cancer), H1299, H1975, A549 and LLC-1 (lung cancer), HepG2 and Hep3B (liver cancer) and LO2 (normal human hepatocytes).”

[3] = system: Taxol-sensitive HCT8 cancer cells; test: MTT cytotoxicity, taxol-sensitive HCT8; assay type: cell-based; details: 72 h
Protocol: as §1, with “experiments.” for “experiments. Cells include HeLa cells (cervical cancer), MCF-7 (breast cancer), H1299, H1975, A549 and LLC-1 (lung cancer), HepG2 and Hep3B (liver cancer) and LO2 (normal human hepatocytes).”

[4] = system: cisplatin-sensitive A2780 ovarian cancer cells; test: MTT cytotoxicity, cisplatin-sensitive A2780; assay type: cell-based; details: 72 h
Protocol: as §1, with “experiments.” for “experiments. Cells include HeLa cells (cervical cancer), MCF-7 (breast cancer), H1299, H1975, A549 and LLC-1 (lung cancer), HepG2 and Hep3B (liver cancer) and LO2 (normal human hepatocytes).”
(§2) Cisplatin-sensitive or -resistant A2780, OV2008 and C13 cancer cells were provided by Prof. Benjamin Tsang (Department of Obstetrics and Gynecology and Department of Cellular and Molecular Medicine, University of Ottawa, Canada). HCT116 p53^+/+ and p53^−/− isogenic human colon cancer cells were provided by Professor Bert Vogelstein (Ludwig Center at Johns Hopkins, Howard Hughes Medical Institute, USA). All media were supplemented with 10% fetal bovine serum and the antibiotics penicillin (50 U/ml) and streptomycin (50 μg/ml; Invitrogen, Paisley, Scotland, UK). All cell cultures were incubated at 37° C. in a 5% humidified CO2 incubator.

[5] = system: HCT116 p53^−/− colon cancer cells; test: MTT cytotoxicity, HCT116 p53-/-; assay type: cell-based, human
Protocol: as §1, with “experiments.” for “experiments. Cells include HeLa cells (cervical cancer), MCF-7 (breast cancer), H1299, H1975, A549 and LLC-1 (lung cancer), HepG2 and Hep3B (liver cancer) and LO2 (normal human hepatocytes).”
as §2

[6] = Body weight in mouse lung cancer xenograft model; assay type: in vivo; details: IP 40 mg/kg/day, tumor-bearing mice
Excerpt: The mice were maintained under specific pathogen-free condition in a 12-h light-dark cycle. Experimental conditions were followed in accordance to the “Institutional AnimalCare and User Committee guidelines” of the Macau University of Science and Technology. Xenograft mouse model was constructed as previously described (Wong, V. K. et al., Oncotarget, 2016, 7, 9907-9924). LLC-1 Lewis lung cancer cells (1×10^6 cells) were subcutaneously injected in the right dorsal region of the mice. After tumors grew to about 100 mm^3, the mice were randomly divided into 3 groups: 1) the control group, 2) 40 mg/kg cobalt-polypyridyl complex of Formula (IV) group, and 3) 40 mg/kg cobalt-polypyridyl complex of Formula (IV) as chloride, also referenced as (IV)-Cl (water soluble form) group. The cobalt-polypyridyl complex of Formula (IV) was dissolved in 100 μL buffer (PEG400:EtOH:ddH2O=6:1:3), whereas (IV)-Cl (water soluble form) was dissolved in ddH2O. The complexes were then intraperitoneal injected in mice every day. The body weight of each mouse was recorded with the tumor volume determined by Vernier caliper using the formula of L×W^2×0.52, where L is the longest diameter of tumor and W is the shortest diameter of tumor. Mice with tumor implants were sacrificed after 10 days when the tumor size of vehicle control group reached above 1000 mm^3 due to animal ethical issue.

[7] = system: HeLa cancer cells
Protocol: For cell cycle analysis, the cells were harvested and washed with ice-cold phosphate-buffered saline (PBS), and then suspended and permeabilized with 70% ethanol for overnight at 4° C. For detecting DNA content and cell cycle, cells were incubated with the freshly prepared propidium iodide (PI) staining buffer for 30 min at room temperature in dark. Fractions of the cells in G1, S, and G2/M phase were analyzed using Modfit software 3.1.
To investigate whether the cobalt-polypyridyl complexes could suppress cancer cell growth by arresting cell cycle progression, HeLa cancer cells were treated with different concentrations of the cobalt-polypyridyl complex of Formula (IV) (with PF6^− as counterion).

[8] = system: HepG2 (liver cancer); test: MTT cytotoxicity assay, HepG2; assay type: cell-based; details: 72 h
Protocol: as §1

[9] = system: LC3-II protein conversion; test: Western blotting of LC3-I to LC3-II conversion; assay type: cell-based; details: Western blot; complex at 10 μM and 20 μM
Protocol: After drug treatment, adherent and floating cells were lysed with RIPA lysis buffer. Protein concentrations were determined using the Bio-Rad protein assay (Bio-Rad Laboratories, Inc., Hercules, Calif., USA). The cell lysates of samples were subjected to electrophoresis on SDS polyacrylamide gels and transferred to Hybond enhanced chemiluminescence nitrocellulose membranes (Amersham Biosciences, Piscataway, N.J.), which were then blocked with 5% non-fat dry milk protein for 1 h. Membranes were then incubated with the indicated primary antibodies overnight at 4° C. The binding of the antibody was visualized by peroxidase-coupled secondary antibody using the ECL Western Blotting Detection Reagents (Invitrogen, Paisley, Scotland, UK). Band intensities were quantified by using the software ImageJ (NIH, Bethesda, Md., USA).

Cc1ccnc(-c2cc(C)ccn2)c1.Cc1ccnc(-c2cc(C)ccn2)c1.Cc1ccnc(-c2cc(C)ccn2)c1.F[P-](F)(F)(F)(F)F.F[P-](F)(F)(F)(F)F.F[P-](F)(F)(F)(F)F.[Co+3] [complex (IV), [Co^III(4,4′-Me2-Bpy)3.](PF6)3]
IC50 [1]: 7.86 µM
IC50 [2]: 11.5 µM
IC50 [3]: 3.39 µM
IC50 [4]: 12.3 µM
Resistant Factor ([5]; HCT116 p53^−/− over HCT116 p53^+/+): 0.59
IC50 ([5]; MTT, 72 h): 9.07 µM
reduction in body weight [6]: no significant reduction in body weight
effect on cell cycle progression ([7]; high concentration): arrest HeLa cancer cell in S-phase
effect on cell cycle progression ([7]; low concentration): negligible effect on cell cycle progression
IC50 [8]: 5.44 µM
LC3-I to LC3-II protein conversion [9]: dose-dependently increased the LC3-II protein conversion
